From US20090069370A1, “AZACYCLYLISOQUINOLINONE AND ISOINDOLINONE DERIVATIVES AS HISTAMINE-3 ANTAGONISTS” (Wyeth, priority 2007, published 2009)
Structures can show the parent of a compound that is named as a salt.

Q: Which melting point does the source give for `CC(C)N1CCC(N2CCc3cc(-c4ccc(C(=O)N5CCCC5)cc4)ccc3C2=O)CC1` (as salt: hydrochloride) [Example 67, 2-(1-isopropylpiperidin-4-yl)-6-[4-(pyrrolidin-1-ylcarbonyl)phenyl]-3,4-dihydroisoquinolin-1(2H)-one] here?
A: > 300 °C

Q: Which melting point does the source give for `O=C(c1ccc(-c2ccc3c(c2)CCN([C@@H]2CCCN(C4CCC4)C2)C3=O)cc1)N1CCCC1` (as salt: hydrochloride) [Example 70, 2-[(3R)-1-cyclobutylpiperidin-3-yl]-6-[4-(pyrrolidin-1-ylcarbonyl)phenyl]-3,4-dihydroisoquinolin-1(2H)-one] here?
A: 260.5 to 262 °C

Q: For `O=C(c1ccc(-c2ccc3c(c2)CCN([C@@H]2CCCN(C4CCCC4)C2)C3=O)cc1)N1CCCC1` (as salt: hydrochloride) [Example 71, 2-[(3R)-1-cyclopentylpiperidin-3-yl]-6-[4-(pyrrolidin-1-ylcarbonyl)phenyl]-3,4-dihydroisoquinolin-1(2H)-one], which melting point is on record?
A: > 250 °C

Q: Which melting point does the source give for `CC(C)N1CCC[C@@H](N2CCc3cc(-c4ccc(C(=O)N5CCCC5)cc4)ccc3C2=O)C1` (as salt: hydrochloride) [Example 72, 2-[(3R)-1-isopropylpiperidin-3-yl]-6-[4-(pyrrolidin-1-ylcarbonyl)phenyl]-3,4-dihydroisoquinolin-1(2H)-one] here?
A: 274 to 275 °C

Q: With `C[C@H]1CCCN1C(=O)c1ccc(-c2ccc3c(c2)CCN([C@@H]2CCN(C4CCC4)C2)C3=O)c(F)c1` (as salt: hydrochloride) [Example 73, 2-[(3R)-1-cyclobutylpyrrolidin-3-yl]-6-(2-fluoro-4-{[(2S)-2-methylpyrrolidin-1-yl]carbonyl}phenyl)-3,4-dihydroisoquinolin-1(2H)-one] as the molecule, how does the melting point read?
A: 212 to 213 °C

Q: Which melting point does the source give for `O=C(NC1CCC1)c1ccc(-c2ccc3c(c2)CCN([C@@H]2CCN(C4CCC4)C2)C3=O)c(F)c1` (as salt: hydrochloride) [Example 74, N-cyclobutyl-4-{2-[(3R)-1-cyclobutylpyrrolidin-3-yl]-1-oxo-1,2,3,4-tetrahydroisoquinolin-6-yl}-3-fluorobenzamide] here?
A: > 230 °C

Q: With `CNC(=O)c1ccc(-c2ccc3c(c2)CCN([C@@H]2CCN(C4CCC4)C2)C3=O)c(F)c1` (as salt: hydrochloride) [Example 75, 4-{2-[(3R)-1-cyclobutylpyrrolidin-3-yl]-1-oxo-1,2,3,4-tetrahydroisoquinolin-6-yl}-3-fluoro-N-methylbenzamide] as the molecule, how does the melting point read?
A: 220 to 221 °C

Q: Which melting point does the source give for `C[C@@H]1CCCN1C(=O)c1ccc(-c2ccc3c(c2)CCN([C@@H]2CCN(C4CCC4)C2)C3=O)c(F)c1` (as salt: hydrochloride) [Example 76, 2-[(3R)-1-cyclobutylpyrrolidin-3-yl]-6-(2-fluoro-4-{[(2R)-2-methylpyrrolidin-1-yl]carbonyl}phenyl)-3,4-dihydroisoquinolin-1(2H)-one] here?
A: 239 to 241 °C

Q: With `CCNC(=O)c1ccc(-c2ccc3c(c2)CCN([C@@H]2CCN(C4CCC4)C2)C3=O)c(F)c1` (as salt: hydrochloride) [Example 77, 4-{2-[(3R)-1-cyclobutylpyrrolidin-3-yl]-1-oxo-1,2,3,4-tetrahydroisoquinolin-6-yl}-N-ethyl-3-fluorobenzamide] as the molecule, how does the melting point read?
A: > 205 °C

Q: For `CN(C)C(=O)c1ccc(-c2ccc3c(c2)CCN([C@@H]2CCN(C4CCC4)C2)C3=O)c(F)c1` (as salt: hydrochloride) [Example 78, 4-{2-[(3R)-1-cyclobutylpyrrolidin-3-yl]-1-oxo-1,2,3,4-tetrahydroisoquinolin-6-yl}-3-fluoro-N,N-dimethylbenzamide], which melting point is on record?
A: 209 to 210 °C

Q: With `O=C(c1ccc(-c2ccc3c(c2)CCN([C@@H]2CCN(C4CCC4)C2)C3=O)c(F)c1)N1CCCC1` (as salt: hydrochloride) [Example 79, 2-[(3R)-1-cyclobutylpyrrolidin-3-yl]-6-[2-fluoro-4-(pyrrolidin-1-ylcarbonyl)phenyl]-3,4-dihydroisoquinolin-1(2H)-one] as the molecule, how does the melting point read?
A: 211 to 212 °C

Q: With `O=C(NC1CC1)c1ccc(-c2ccc3c(c2)CCN([C@@H]2CCN(C4CCC4)C2)C3=O)c(F)c1` (as salt: hydrochloride) [Example 81, 4-{2-[(3R)-1-cyclobutylpyrrolidin-3-yl]-1-oxo-1,2,3,4-tetrahydroisoquinolin-6-yl}-N-cyclopropyl-3-fluorobenzamide] as the molecule, how does the melting point read?
A: > 200 °C

Q: For `CNC(=O)c1ccc(-c2ccc3c(c2)CCN([C@@H]2CCN(C(C)C)C2)C3=O)cc1` (as salt: hydrochloride) [Example 82], which melting point is on record?
A: > 275 °C

Q: For `CCNC(=O)c1ccc(-c2ccc3c(c2)CCN([C@@H]2CCN(C(C)C)C2)C3=O)cc1` (as salt: hydrochloride) [Example 83, N-ethyl-4-{2-[(3R)-1-isopropylpyrrolidin-3-yl]-1-oxo-1,2,3,4-tetrahydroisoquinolin-6-yl}benzamide], which melting point is on record?
A: > 270 °C

Q: Which melting point does the source give for `CC(C)N1CC[C@@H](N2CCc3cc(-c4ccc(C(=O)N5CCCC5)cc4F)ccc3C2=O)C1` (as salt: hydrochloride) [Example 84, 6-[2-fluoro-4-(pyrrolidin-1-ylcarbonyl)phenyl]-2-[(3R)-1-isopropylpyrrolidin-3-yl]-3,4-dihydroisoquinolin-1(2H)-one] here?
A: 249 to 250 °C

Q: For `CNC(=O)c1ccc(-c2ccc3c(c2)CCN([C@@H]2CCN(C(C)C)C2)C3=O)c(F)c1` (as salt: hydrochloride) [Example 85, 3-fluoro-4-{2-[(3R)-1-isopropylpyrrolidin-3-yl]-1-oxo-1,2,3,4-tetrahydroisoquinolin-6-yl}-N-methylbenzamide], which melting point is on record?
A: 245 to 247 °C

Q: With `CCNC(=O)c1ccc(-c2ccc3c(c2)CCN([C@@H]2CCN(C(C)C)C2)C3=O)c(F)c1` (as salt: hydrochloride) [Example 86, N-ethyl-3-fluoro-4-{2-[(3R)-1-isopropylpyrrolidin-3-yl]-1-oxo-1,2,3,4-tetrahydroisoquinolin-6-yl}benzamide] as the molecule, how does the melting point read?
A: > 255 °C

Q: Which melting point does the source give for `O=C(NC1CCCC1)c1ccc2c(c1)CCN([C@@H]1CCN(C3CCC3)C1)C2=O` (as salt: hydrochloride) [Example 88, 2-[(3R)-1-cyclobutylpyrrolidin-3-yl]-N-cyclopentyl-1-oxo-1,2,3,4-tetrahydroisoquinoline-6-carboxamide hydrochloride] here?
A: 124 to 125 °C

Q: Which melting point does the source give for `O=C1NCCc2cc(-c3ccc4c(c3)CCN([C@@H]3CCN(C5CCC5)C3)C4=O)ccc21` (as salt: hydrochloride) [Example 89, (R)-2-(1-cyclobutylpyrrolidin-3-yl)-3,3′,4,4′-tetrahydro-6,6′-biisoquinoline-1,1′(2H,2′H)-dione hydrochloride] here?
A: > 274 °C

Q: With `CNC(=O)c1ccc(-c2ccc3c(c2)CN([C@@H]2CCN(C4CCC4)C2)C3=O)cc1` (as salt: hydrochloride) [Example 91, (R)-4-(2-(1-cyclobutylpyrrolidin-3-yl)-1-oxoisoindolin-5-yl)-N-methylbenzamide hydrochloride] as the molecule, how does the melting point read?
A: 207 to 208 °C

Q: For `O=C(c1ccc(-c2ccc3c(c2)CN([C@@H]2CCN(C4CCC4)C2)C3=O)cc1)N1CCCC1` (as salt: hydrochloride) [Example 92, (R)-2-(1-cyclobutylpyrrolidin-3-yl)-5-(4-(pyrrolidine-1-carbonyl)-phenyl)isoindolin-1-one hydrochloride], which melting point is on record?
A: 220 to 221 °C

Q: Which melting point does the source give for `O=C(c1ccc(-c2ccc3c(c2)CCN(C2CCN(Cc4ccccc4)CC2)C3=O)cc1)N1CCCC1` [Example 63, 2-(1-benzylpiperidin-4-yl)-6-(4-(pyrrolidine-1-carbonyl)phenyl)-3,4-dihydroisoquinolin-1(2H)-one] here?
A: 197 to 198 °C

Q: With `O=C(c1ccc(-c2ccc3c(c2)CCN(C2CCNCC2)C3=O)cc1)N1CCCC1` [Example 64, 2-(piperidin-4-yl)-6-(4-(pyrrolidine-1-carbonyl)phenyl)-3,4-dihydroisoquinolin-1(2H)-one] as the molecule, how does the melting point read?
A: > 273 °C

Q: With `CNC(=O)c1ccc(-c2ccc3c(c2)CCN([C@H]2CCN(C4CCC4)C2)C3=O)cc1.Cl` [Example 90, (R)-4-(2-(1-cyclobutylpyrrolidin-3-yl)-1-oxo-1,2,3,4-tetrahydro-isoquinolin-6-yl)-N-methylbenzamide hydrochloride] as the molecule, how does the melting point read?
A: 265 to 266 °C
